Test results from patent publication US20240366589A1, “NHE3-BINDING COMPOUNDS AND METHODS FOR INHIBITING PHOSPHATE TRANSPORT” (Ardelyx, Inc., priority 2013, published 2024).
“And” between values parts separate entries of the source, which are not always exact repeats. Equal entries are not always repeated.

What was measured:
[1] = system: phosphorus and calcium levels in the urine of rats; experiment: Urinary excretion of phosphate and calcium in rats (16 h overnight urine); format: in vivo, rat; conditions: rats, oral gavage, 16 h post-dose
Human NHE3 = target: T1, Human NHE3 (Homo sapiens, UniProt P48764); experiment: Cell-based NHE3 activity under prompt conditions (OK cells, BCECF pH recovery), human NHE3; conditions: prompt conditions
T1 construct: expressed in transfected cells; host or cells: Opossum kidney (OK) cells (ATCC), electroporation
T1 sequence (P48764 26-834): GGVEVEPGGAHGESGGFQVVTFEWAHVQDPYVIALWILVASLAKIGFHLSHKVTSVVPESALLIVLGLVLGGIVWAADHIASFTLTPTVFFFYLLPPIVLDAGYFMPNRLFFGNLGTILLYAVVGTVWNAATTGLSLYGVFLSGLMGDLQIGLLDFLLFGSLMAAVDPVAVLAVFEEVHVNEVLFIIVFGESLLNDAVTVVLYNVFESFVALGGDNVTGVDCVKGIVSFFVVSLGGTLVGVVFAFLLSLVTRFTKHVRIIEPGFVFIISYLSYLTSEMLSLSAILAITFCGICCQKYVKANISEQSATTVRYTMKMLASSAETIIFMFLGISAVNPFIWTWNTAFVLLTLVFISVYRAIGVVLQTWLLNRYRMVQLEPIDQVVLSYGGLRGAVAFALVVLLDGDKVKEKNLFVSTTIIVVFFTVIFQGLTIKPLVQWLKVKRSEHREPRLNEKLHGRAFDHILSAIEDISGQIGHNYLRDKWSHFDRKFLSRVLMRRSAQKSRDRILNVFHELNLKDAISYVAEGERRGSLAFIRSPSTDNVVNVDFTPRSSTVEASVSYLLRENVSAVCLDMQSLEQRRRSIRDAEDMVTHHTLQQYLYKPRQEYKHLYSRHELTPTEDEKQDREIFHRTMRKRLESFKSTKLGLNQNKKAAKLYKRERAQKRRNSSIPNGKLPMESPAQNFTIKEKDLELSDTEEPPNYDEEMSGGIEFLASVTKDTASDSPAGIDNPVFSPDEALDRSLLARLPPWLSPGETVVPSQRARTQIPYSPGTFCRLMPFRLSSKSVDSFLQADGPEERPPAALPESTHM
Protocol: Cell-based activity under Prompt Conditions. Rat or human NHE3-mediated Na^+-dependent H antiport was measured using a modification of the pH sensitive dye method originally reported by Paradiso (PNAS USA. 81:7436-7440, 1984). Opossum kidney (OK) cells were obtained from the ATCC and propagated per their instructions. The rat NHE3 gene (GenBank M85300) or the human NHE3 gene (GenBank NM_004174.1) was introduced into OK cells via electroporation, and cells were seeded into 96 well plates and grown overnight. Medium was aspirated from the wells, cells were washed twice with NaCl-HEPES buffer (100 mM NaCl, 50 mM HEPES, 10 mM glucose, 5 mM KCl, 2 mM CaCl2, 1 mM MgCl2, pH 7.4), then incubated for 30 min at room temperature with NH4Cl-HEPES buffer (20 mM NH4Cl, 80 mM NaCl, 50 mM HEPES, 5 mM KCl, 2 mM CaCl2, 1 mM MgCl2, pH 7.4) containing 5 μM bis(acetoxymethyl) 3,3′-(3′,6′-bis(acetoxymethoxy)-5-((acetoxymethoxy)carbonyl)-3-oxo-3H-spiro[isobenzofuran-1,9′-xanthene]-2′,7′-diyl)dipropanoate (BCECF-AM).
Cells were washed twice with Ammonium free, Na^+-free HEPES (100 mM choline, 50 mM HEPES, 10 mM glucose, 5 mM KCl, 2 mM CaCl2, 1 mM MgCl2, pH 7.4) and incubated in the same buffer for 10 minutes at room temperature to lower intracellular pH. […] Initial rates were plotted as the average 2 or more replicates, and pIC50 values were estimated using GraphPad Prism.
Cell-based activity of NHE3 Activity under ‘Prompt’ Conditions. This assay was performed as described in Example 1 (supra).

[2] = system: absorption of sodium from the intestinal lumen; experiment: Inhibition of intestinal sodium absorption: urinary sodium (uNa) 16 h after single oral dose in rats; format: in vivo, rat; conditions: oral gavage, 16 h post-dose
Method in brief: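 Eight-week-old Sprague-Dawley rats (n=6) given single oral gavage of compound or water vehicle in the late afternoon, then kept in metabolic cages with chow and water ad libitum. Urine collected over 16 h; sodium quantified by ion chromatography and expressed as % of vehicle mean, compared by one-way ANOVA with Dunnett's test.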

Rat NHE3 = target: T2, Rat NHE3 (Rattus norvegicus, UniProt P26433); experiment: Cell-based NHE3 activity under prompt conditions (OK cells, BCECF pH recovery), rat NHE3; conditions: prompt conditions
T2 construct: expressed in transfected cells; host or cells: Opossum kidney (OK) cells (ATCC), electroporation
T2 sequence (P26433 29-831): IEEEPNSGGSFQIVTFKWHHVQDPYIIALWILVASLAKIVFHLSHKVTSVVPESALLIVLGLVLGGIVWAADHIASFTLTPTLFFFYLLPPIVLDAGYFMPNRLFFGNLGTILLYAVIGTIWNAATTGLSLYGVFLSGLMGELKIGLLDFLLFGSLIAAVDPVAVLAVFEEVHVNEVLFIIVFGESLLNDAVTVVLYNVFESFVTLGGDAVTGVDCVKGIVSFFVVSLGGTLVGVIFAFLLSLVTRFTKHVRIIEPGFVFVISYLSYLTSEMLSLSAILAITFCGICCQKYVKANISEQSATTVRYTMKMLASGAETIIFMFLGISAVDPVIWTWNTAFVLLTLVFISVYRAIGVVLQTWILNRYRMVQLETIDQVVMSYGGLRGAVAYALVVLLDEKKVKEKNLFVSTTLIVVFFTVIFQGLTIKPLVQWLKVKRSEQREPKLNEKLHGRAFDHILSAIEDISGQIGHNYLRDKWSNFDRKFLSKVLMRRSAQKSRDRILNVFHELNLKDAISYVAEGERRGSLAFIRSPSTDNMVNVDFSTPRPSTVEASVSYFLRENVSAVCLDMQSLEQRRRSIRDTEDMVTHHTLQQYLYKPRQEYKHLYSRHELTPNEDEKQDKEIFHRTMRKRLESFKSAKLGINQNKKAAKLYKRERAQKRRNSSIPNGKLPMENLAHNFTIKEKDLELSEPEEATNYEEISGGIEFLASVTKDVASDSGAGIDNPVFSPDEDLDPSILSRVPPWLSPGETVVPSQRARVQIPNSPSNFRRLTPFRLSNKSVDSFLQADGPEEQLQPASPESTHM
Method in brief: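 OK cells electroporated with rat or human NHE3 gene, loaded 30 min at room temperature with 5 μM BCECF-AM in NH4Cl-HEPES pH 7.4.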

[3] = system: absorption of sodium from the intestinal lumen; experiment: Fecal form score (FFS) 16 h after oral dose in rats; format: in vivo, rat; conditions: oral gavage, 16 h post-dose, scale 1-5
Method in brief: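 Eight-week-old Sprague-Dawley rats (n=6) dosed by oral gavage with compound or water vehicle between 4 and 5 PM, then housed in metabolic cages with food and water ad libitum. At 16 h, fecal form scored 1 (normal pellet) to 5 (liquid streams) by two observers; group mean reported.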

Row | SMILES | Urine P % of control ([1]; dose 10 mg/kg) [%] | Urine P % of control ([1]; dose 30 mg/kg) [%] | Prompt Human NHE3 pIC50 (Human NHE3) | Urine Na % of control ([2]; dose 10 mg/kg) [%] | Urine Na % of control ([2]; dose 30 mg/kg) [%] | Prompt Rat NHE3 pIC50 (Rat NHE3) | Fecal Form Score average ([3]; dose 10 mg/kg) | Fecal Form Score average ([3]; dose 30 mg/kg) | IC50 (Rat NHE3; read-out: Prompt Rat NHE3 pIC50 (converted)) [µM]
1 | N=C(N)Nc1nc(-c2ccc(S(=O)(=O)NCCOCCOCCN)cc2)c2cc(Cl)ccc2n1 [compound 8] | 101 | 114 | 6.40 | 73 | 31 | 6.90 | 1 | 2 | 
2 | C/C(=C\c1cc(F)c(Oc2ccc(S(=O)(=O)NCCOCCOCCOCCNC(=O)CN(C)CC(=O)NCCOCCOCCOCCNS(=O)(=O)c3ccc(Oc4c(F)cc(/C=C(\C)C(=O)N=C(N)N)cc4F)cc3)cc2)c(F)c1)C(=O)N=C(N)N [compound 9] | 77 |  | 7.10 | 56 |  | 6.50 | 1 |  | 
3 | NCCOCCOCCOc1cccc(-c2nc(N=C(N)N)nc3ccc(Cl)cc23)c1 [compound 10] | 80 |  | 7.50 | 76 |  | 6.65 | 1 |  | 
4 | NCCOCCOCCOc1ccc(-c2nc(N=C(N)N)nc3ccc(Cl)cc23)cc1 [compound 11] | 64 | 96 | 6.80 | 60 | 29 | 6.95 | 1 | 2 | 
5 | N=C(N)Nc1nc(-c2cccc(S(=O)(=O)NCCOCCOCCOCCN)c2)c2cc(Cl)ccc2n1 [compound 12] | 94 |  | 7.00 | 82 |  | 6.10 | 1 |  | 
6 | C/C(=C\c1cc(F)c(Oc2ccc(S(=O)(=O)NCCOCCOCCOCCNCc3ccc(CNCCOCCOCCOCCNS(=O)(=O)c4ccc(Oc5c(F)cc(/C=C(\C)C(=O)N=C(N)N)cc5F)cc4)cc3)cc2)c(F)c1)C(=O)N=C(N)N [compound 13] | 56 |  | 7.40 | 74 |  | 6.70 | 1 |  | 
7 | C/C(=C\c1cc(F)c(Oc2ccc(S(=O)(=O)NCCOCCOCCOCCNC(=O)NCCOCCOCCNC(=O)NCCOCCOCCOCCNS(=O)(=O)c3ccc(Oc4c(F)cc(/C=C(\C)C(=O)N=C(N)N)cc4F)cc3)cc2)c(F)c1)C(=O)N=C(N)N [compound 14] | 59 |  | 7.60 | 51 |  | 7.00 | 1 |  | 
8 | C/C(=C\c1cc(F)c(Oc2ccc(S(=O)(=O)NCCOCCOCCOCCNC(=O)COCC(=O)NCCOCCOCCOCCNS(=O)(=O)c3ccc(Oc4c(F)cc(/C=C(\C)C(=O)N=C(N)N)cc4F)cc3)cc2)c(F)c1)C(=O)N=C(N)N [compound 15] | 65 |  | 7.90 | 77 |  | 7.30 | 1 |  | 
9 | NCCOCCOCCN1CCN(c2cccc(-c3nc(N=C(N)N)nc4ccc(Cl)cc34)c2)CC1 [compound 16] |  | 123 | 7.80 |  | 87 | 6.70 |  | 1 | 
10 | NC(N)=Nc1nc(-c2ccc(N3CCN(CCOCCOCCNC(=O)[C@H](O)[C@@H](O)C(=O)NCCOCCOCCN4CCN(c5ccc(-c6nc(N=C(N)N)nc7ccc(Cl)cc67)cc5)CC4)CC3)cc2)c2cc(Cl)ccc2n1 [compound 17] |  | 120 | 6.60 |  | 86 | 7.10 |  | 1 | 
11 | NCCOCCOCCOCCN1CCN(c2ccc(-c3nc(N=C(N)N)nc4ccc(Cl)cc34)cc2)CC1 [compound 18] | 142 | 109 | 7.35 and 6.90 | 74 | 41 | 7.25 and 6.90 | 1 | 1 | 
12 | NCCOCCOCCN1CCN(c2ccc(-c3nc(N=C(N)N)nc4ccc(Cl)cc34)cc2)CC1 [compound 19] | 119 |  | 7.40 | 72 |  | 7.00 | 1 |  | 
13 | N=C(N)Nc1nc(-c2ccc(N3CCN(CCOCCOCCOCCNC(=O)NCCOCCOCCNC(=O)NCCOCCOCCOCCN4CCN(c5ccc(-c6nc(NC(=N)N)nc7ccc(Cl)cc67)cc5)CC4)CC3)cc2)c2cc(Cl)ccc2n1 [compound 20] | 81 |  | 7.20 | 86 |  | 7.30 | 1 |  | 
14 | CN(CC(=O)NCCOCCOCCOCCN1CCN(c2ccc(-c3nc(NC(=N)N)nc4ccc(Cl)cc34)cc2)CC1)CC(=O)NCCOCCOCCOCCN1CCN(c2ccc(-c3c(Cl)ccc4nc(NC(=N)N)ncc34)cc2)CC1 [compound 21] | 101 |  | 7.00 | 66 |  |  | 1 |  | 0.794
